Measurements as given in patent publication US11752116B2, “Method of viral inhibition” (priority 2013, dated 2023).

Key:
[1] = tested on: DENV-1; experiment: ADE-mediated DENV-1 infection of human PBMCs, plaque assay; format: cell-based; settings: Dengue virus, DENV1, PBMC, MOI of 10, 48 h, read-out: ex vivo EC50, ADE-mediated DENV-1 infection
Description: The antiviral activity of 4-HPR was investigated in the more physiologically relevant human system of peripheral blood mononuclear cells (PBMCs), a major target of DENV infection in humans.
PBMCs were prepared from a healthy donor buffy coat using a Ficoll gradient, prior to ADE-mediated DENV-1 infection (MOI of 10) in the presence of increasing concentrations of 4-HPR or 4-MPR, and infectious virus titres determined by plaque assay 48 h later.

[2] = tested on: DENV-4; experiment: Plaque assay in Huh-7 cells, DENV-4; format: cell-based; settings: Dengue virus, DENV4, Huh-7, 48 h, read-out: EC50, infectious virus titre DENV 4
Description: (§1) To ensure the antiviral activity of 4-HPR is not cell-line specific Huh-7 cells were also infected with DENV-1, 2, 3 or 4 (MOI of 0.3) in the presence of increasing concentrations of 4-HPR, with infectious virus titres determined by plaque assay at 48 h p.i.

[3] = tested on: CHIKV; experiment: CHIKV infection of HEK293T cells, plaque assay; format: cell-based; settings: 5 μM, 24 h p.i.
Description: HEK293T cells were treated with 5 μM 4-HPR or 4-MPR for 2 h, then infected with CHIKV for 1 h (MOI of 0.1) in the absence of compound (FIG. 9A). Alternatively, HEK293T cells were infected with CHIKV for 1 h (MOI of 0.1) without pre-treating the cells with compound (FIG. 9B). In both instances, virus inoculums were removed, then fresh medium containing the indicated compound was added (FIG. 9A and FIG. 9B). Infectious virus titres were determined by plaque assay 24 h p.i. Data are the mean+standard deviation of one experiment performed in duplicate wells, represented as plaque forming units per ml (PFU/ml).

[4] = tested on: DENV-2; experiment: Plaque assay in Huh-7 cells, DENV-2; format: cell-based; settings: Dengue virus, DENV2, Huh-7, 48 h, read-out: EC50, infectious virus titre DENV 2
Description: as §1

[5] = tested on: DENV-2; experiment: Delayed addition in DENV-2 infected Huh-7 cells, NS1 RNA by qPCR; format: cell-based; settings: 7.5 μM added 12 h p.i., at 24 h p.i.
Description: To gain further insight into the mode of action of 4-HPR, the human liver carcinoma cell line, Huh-7 cells were infected with DENV-2 (MOI of 1), followed by delayed addition of drug diluent DMSO (DENV only), 7.5 μM 4-HPR, 7.5 μM 4-MPR or 10 μM NITD008 (a previously described adenosine nucleoside inhibitor), 12 h post infection. Cells were lysed at the indicated times, RNA was extracted by Trizol and analysed by qPCR with fold change in expression of NS1 calculated relative to the untreated control (FIG. 5B). Concurrently, culture medium was collected and viral titres determined by plaque assay (FIG. 5C).

[6] = tested on: DENV-1; experiment: ADE-mediated DENV-1 infection of THP-1 cells, plaque assay; format: cell-based; settings: Dengue virus, DENV1, THP-1, 48 h, read-out: EC50, ADE-mediated DENV-1 infection
Description: In a cell culture model of antibody-dependent enhanced (ADE) DENV infection, THP-1 human monocyte cells infected with DENV-1 in the presence of sub-neutralising levels of a humanized version of the 4G2 antibody, which is cross-reactive with flavivirus envelope proteins (Paradkar et al., 2010 Bio Sci Rep.), show increased virus production compared to cells infected with virus alone. This model mimics the ADE phenomenon thought to occur in patients infected with a second serotype of DENV, which is associated with more severe DENV disease.
Briefly, humanized 4G2 antibody (0.05 μg/ml) was combined with DENV-1 (MOI of 10), and 4-HPR (concentrations as indicated in FIG. 7) in serum-free media, and incubated on ice for 1 h for the immune complex to form. Immune complex inoculums were added to THP-1 cells and incubated for 48 h. Supernatants were collected after 2 days and infectious virus production was quantified by plaque assay.

[7] = molecular target: DENV-2 NS5 / IMPβ1 (Dengue virus type 2, UniProt P14340); experiment: AlphaScreen binding of His6-NS5 to biotinylated IMPβ1; settings: 30 nM His6-NS5, 3 nM biotinylated IMPβ1, increasing concentrations of 4-HPR
Description: To investigate the specificity of 4-HPR inhibition of NS5-importin association, the binding of 30 nM His6-NS5 to 10 nM IMPα/β, (IMPα/β heterodimer containing biotinylated IMPβ1), 3 nM IMPαΔIBB (biotinylated IMPa with the IMPβ-binding domain removed), or 3 nM biotinylated IMPβ1, in the presence of increasing concentrations of 4-HPR, was investigated.

[8] = tested on: DENV-2 strain (S221); experiment: Lethal mouse infection model, AG129 mice infected with mouse adapted DENV-2 strain S221; format: in vivo; settings: 20 mg/kg orally
Description: Mice have previously been used as an in vivo model for 4-HPR pharmacokinetics. To examine the effect of 4-HPR on DENV infection in vivo, a lethal mouse infection model, which uses a mouse adapted DENV-2 strain (S221), to infect Sv/129 mice deficient in type I and II interferon receptors (AG129) was used (Zellweger et al., 2010, Cell Host Microbe). Viral infection in this system is enhanced by intraperitoneal delivery of a sub-neutralizing concentration of 4G2 antibody 1 day prior to infection, resulting in peak viremia 3 days p.i. and death of infected mice by day 5. Here, mice were treated with 20 mg/kg of 4-HPR, administered orally at the time of infection, then once (QD) or twice (BID) daily for 5 consecutive days. Consistent with previous reports, infected, untreated mice all died by day 5 (FIG. 8B). Once daily treatment of mice with 4-HPR was sufficient to provide protection to 20% of mice, which recovered from the infectious challenge, whereas increasing the dose to 2 treatments daily, improved protection to 70% (7 of 10 mice recovered from the infectious challenge).
Data are the mean+SEM. Statistical analysis (Student's t test) was performed using Graph Pad Prism software (ns, not significant).

[9] = tested on: DENV-2; experiment: Cell-based flavivirus immunodetection assay in BHK-21 cells, DENV-2; settings: Dengue virus, DENV2, BHK-21, 48 h, read-out: EC50, DENV-2 replication
Description: To investigate this, BHK-21 cells were infected with DENV serotypes 1, 2, 3 or 4 (MOI of 0.3) for 1 h in the presence of 4-HPR or 4-MPR (concentrations as indicated in FIG. 6A). Virus inoculum was removed and fresh media containing the indicated compounds was added. Virus infection rates were determined 48 h p.i. using a cell-based flavivirus immunodetection assay. Briefly, cells were fixed and stained for DENV structural protein, E, followed by addition of Alexa Fluor 488 anti-mouse IgG. Viral antigen quantification was performed using Imagexpress. Data shown are representative of a single experiment

[10] = tested on: PERK pathway; experiment: Activation of PERK pathway of the unfolded protein response in DENV-infected cells; format: cell-based

For `CC1=C(/C=C/C(C)=C/C=C/C(C)=C/C(=O)Nc2ccc(O)cc2)C(C)(C)CCC1` [4-HPR, N-(4-hydroxyphenyl) retinamide], the EC50 [1] was 810 nM, the EC50 [2] was 2100 nM and the “reduction of infectious CHIKV produced” value ([3]; HEK293T cells pre-treated 2 h with compound) was about 100%. The “reduction of infectious CHIKV produced” value ([3]; HEK293T cells, compound added after infection) was about 95%, the EC50 [4] was 2100 nM and the “reduction in viral RNA levels (NS1 qPCR)” value [5] was 1 log. For the same molecule, the EC50 [6] was 850 nM, the “NS5 binding to IMPβ1 alone” value [7] was “largely unaffected” and the “average plasma viral titre lower than untreated group, 3 days p.i.” value ([8]; BID treatment group) was 65%. The “average plasma viral titre 3 days p.i.” value ([8]; QD treatment group) was “small reduction”, the “protection (mice recovered from the infectious challenge)” value ([8]; once daily (QD) for 5 days) was 20% and the “protection (mice recovered from the infectious challenge)” value ([8]; twice daily (BID) for 5 days) was 70%. The EC50 [9] was 2240 nM and the “activation of PERK pathway within the unfolded protein response” value [10] was “induces activation of the pro-apoptotic PERK pathway”.
